From patent US3985742A, “Process for preparing 3-hydroxymethyl cephalosporins” (priority 1975, dated 1976)
“Also recorded” adds a separate entry of the source. Counter-ions that a name gives are not always drawn. Like-named read-outs stand apart in the source and are kept apart here.

Tests used:
[1] = relative biopotency of blocked intermediate; settings: starting material: disodium salt of 842A
[2] = test system: several strains of bacteria; assay: bioactivity, summary; type: cell-based
Vibrio percolans MB-1272 = assay: disc-plate bioassay using Vibrio percolans; settings: Comamonas terrigena, MB1272, read-out: disc zone size, 5γ/ml
Escherichia coli W-MB-60 [3] = assay: disc zone bioassay of derivatives; type: cell-based; settings: WMB60, 100γ/ml, read-out: disc zone size
Description: (§1) Bioassay: the disc zone sizes in the following table are expressed in mm. for 100γ/ml of antibiotic.
(§2) Bioassay: The disc zone sizes in the following table are expressed in mm. for equal concentrations of antibiotic.

[4] = test system: Pseudomonas stutzeri MB-1231; assay: disc zone bioassay of derivatives; type: cell-based; settings: Stutzerimonas stutzeri, MB1231, 100γ/ml; read-out: disc zone size
Description: as §1
Bioassay: the disc zone sizes in the following table are expressed in mm. for equal concentrations of antibiotic.
as §2

bacteria = assay: bactericidal action and development of resistance
gram-negative bacteria = assay: in vitro growth inhibition, summary; type: cell-based
[5] = test system: gram-negative and gram-positive infections; assay: in vivo protection, summary statements; design: species or system mice; settings: for protection against infection, oral: given orally; for in vivo activity / protection spectrum: mouse
Protocol: (§3) Methods: The method employed in this characterization is as follows: Female white Swiss mice, average weight 20-23 grams, were infected intraperitoneally with 3-20 times the number of organisms calculated to be lethal for 50% of the infected control animals (3-20 LD50 doses). At the time of infection and again 6 hours later, therapy was given by the designated route. Controls of the virulence of the culture and the toxicity of the antibiotic for uninfected mice were included in the tests. Seven days after infection the test was considered complete and the amount of the antibiotic (I) that would be required to protect 50% of the infected and treated animals was calculated by the method of Knudsen and Curtis; J. Amer. Stat. Assoc. Vol. 42: page 282 (1947).
The method employed in these studies is the same as described above with regard to the in vivo characterization of 810A.

[6] = isoelectric point and pH stability; type: physicochemical; settings: for stability: pH 1.5
gram-positive bacteria = assay: in vitro growth inhibition, summary; type: cell-based; settings: S. aureus, Sarcina lutea, B. subtilis
[7] = blood appearance and urinary excretion; type: in vivo, mice; settings: for appearance in blood / excretion: in vivo
Proteus morganii 251 = assay: bacterial inactivation; settings: washed bacterial cells, 4 h
Protocol: (§4) These cultures are: Escherichia coli 236, Proteus morganii 251, Proteus morganii 356 and Proteus mirabilis 241. […] In conducting the assay, individual mixtures of the organisms and one of the antibiotics were sampled after four hours incubation and assayed for residual antibiotic activity. The procedure is the same assay method as described above against Alcaligenes faecalis MB-9 and A. viscosus MB-12.

Proteus mirabilis 241 = assay: bacterial inactivation; settings: washed bacterial cells, 4 h
Protocol: as §4

Escherichia coli 236 = assay: bacterial inactivation; settings: 4 hours; assayed on B. subtilis (MB-964)
Protocol: as §4

Proteus morganii 356 = assay: bacterial inactivation; settings: washed bacterial cells, 4 h
Protocol: as §4

[8] = test system: cephalosporinases and penicillinase; assay: resistance to enzymatic degradation / bacterial inactivation, summary statements
[9] = test system: Alcaligenes faecalis MB-9; assay: bacterial inactivation by washed bacterial cells; settings: 4 hour; assayed on B. subtilis (MB-964); start 4 mg/ml
[10] = test system: Alcaligenes viscosus MB-12; assay: bacterial inactivation by washed bacterial cells; settings: 4 hour; assayed on B. subtilis (MB-964); start 4 mg/ml
[11] = toxicity in uninfected mice; settings: mouse, in vivo
Protocol: as §3

[12] = test system: Escherichia coli, Viomycin-resistant; assay: cross-resistance, disc-plate agar diffusion; type: cell-based; settings: read-out: Inhibition Zone Diameter
Vibrio percolans = assay: disc-plate agar diffusion, antibacterial spectrum; type: cell-based; settings: Comamonas terrigena; 192 μg/ml; 27 °C; 7 mm = no zone; read-out: Inhibition Zone Diameter
Escherichia coli W-MB-60 [13] = assay: special effects spectrum, disc-plate agar diffusion; type: cell-based; settings: WMB60, 192 μg/ml, read-out: Inhibition Zone Diameter
Sarcina lutea = assay: disc-plate agar diffusion, antibacterial spectrum; type: cell-based; settings: Micrococcus luteus; 192 μg/ml; 25 °C; 7 mm = no zone; read-out: Inhibition Zone Diameter
Serratia marcescens = assay: disc-plate agar diffusion, antibacterial spectrum; type: cell-based; settings: 192 μg/ml, 25 °C, 7 mm = no zone, read-out: Inhibition Zone Diameter
[14] = test system: Staphylococcus aureus (Streptomycin-Streptothricin-resistant); assay: disc-plate agar diffusion, antibacterial spectrum; type: cell-based; settings: read-out: Inhibition Zone Diameter
[15] = test system: Escherichia coli, Chlortetracycline-resistant; assay: microbe, parasite or virus in culture; type: cell-based; settings: read-out: Inhibition Zone Diameter
[16] = test system: Escherichia coli, Grisein-resistant; assay: cross-resistance, disc-plate agar diffusion; type: cell-based; settings: read-out: Inhibition Zone Diameter
Pseudomonas aeruginosa = assay: disc-plate agar diffusion, antibacterial spectrum; type: cell-based; settings: 192 μg/ml, 25 °C, 7 mm = no zone, read-out: Inhibition Zone Diameter
[17] = test system: Escherichia coli, Polymyxin-resistant; assay: cross-resistance, disc-plate agar diffusion; type: cell-based; settings: read-out: Inhibition Zone Diameter
[18] = test system: Escherichia coli, Neomycin-resistant; assay: cross-resistance, disc-plate agar diffusion; type: cell-based; settings: read-out: Inhibition Zone Diameter
Staphylococcus aureus = assay: disc-plate agar diffusion, antibacterial spectrum; type: cell-based; settings: 192 μg/ml, 25 °C, 7 mm = no zone, read-out: Inhibition Zone Diameter
[19] = test system: Escherichia coli, Pleocidin-resistant; assay: cross-resistance, disc-plate agar diffusion; type: cell-based; settings: read-out: Inhibition Zone Diameter
Alcaligenes faecalis = assay: disc-plate agar diffusion, antibacterial spectrum; type: cell-based; settings: 192 μg/ml, 37 °C, 7 mm = no zone, read-out: Inhibition Zone Diameter
[20] = test system: Escherichia coli, Chloramphenicol-resistant; assay: cross-resistance, disc-plate agar diffusion; type: cell-based; settings: read-out: Inhibition Zone Diameter
Streptococcus faecalis = assay: disc-plate agar diffusion, antibacterial spectrum; type: cell-based; settings: Enterococcus faecalis; 192 μg/ml; 37 °C; 7 mm = no zone; read-out: Inhibition Zone Diameter
Brucella bronchiseptica = assay: microbe, parasite or virus in culture; type: cell-based; settings: Bordetella bronchiseptica, read-out: Inhibition Zone Diameter
[21] = test system: Escherichia coli, Streptomycin-resistant; assay: cross-resistance, disc-plate agar diffusion; type: cell-based; settings: read-out: Inhibition Zone Diameter

With `CO[C@@]1(NC(=O)CCC[C@@H](NC(=O)OC(C)(C)C)C(=O)O)C(=O)N2C(C(=O)O)=C(COC(N)=O)CS[C@@H]21` [7β-(D-5-N-tertiary-butoxycarbonylamino-5-carboxyvaleramido)-3-(carbamoyloxymethyl)-7-methoxy-3-cephem-4-carboxylic acid] the “biopotency relative to starting material” value [1] was “one-tenth the biopotency of the starting material”.

With `CO[C@@]1(NC(=O)CCC[C@@H](N)C(=O)O)C(=O)N2C(C(=O)O)=C(CN=[N+]=[N-])CS[C@@H]21` [7β-(D-5-amino-5-carboxyvaleramido)-3-(azidomethyl)-7-methoxy-3-cephem-4-carboxylic acid] the bioactivity [2] was “possessed bioactivity against several strains of bacteria”, the zone of inhibition at 5 µg/mL (Vibrio percolans MB-1272) was 16 mm and the zone of inhibition at 100 µg/mL (Escherichia coli W-MB-60 [3]) was 21 mm. For the same compound, the zone of inhibition at 100 µg/mL [4] was 20 mm.

For `CO[C@@]1(NC(=O)CCC[C@@H](N)C(=O)O)C(=O)N2C(C(=O)O)=C(COC(N)=O)CS[C@@H]21` [Example 842A], the bactericidal action (bacteria) was “bactericidal”, the development of resistance (bacteria) was “resistance to it develops slowly” and the “activity against Salmonella” value (gram-negative bacteria) was “exhibits activity against Salmonella schottmuelleri 3010, S. gallinarum and S. typhosa”. The growth inhibition (gram-negative bacteria; in vitro, E. coli, P. vulgaris, A. faecalis, B. bronchiseptica, S. gallinarum, V. percolans, X. vesicatoria) was “inhibits the growth of the following gram-negative bacteria”, the “protection against infection, oral” value [5] was “protects against infections due to Paracolobactrum arizonae 3270, Proteus vulgaris 1810, and Salmonella schottmuelleri 3010” and the “in vivo activity / protection spectrum” value ([5]; listed as Antibiotic 842A) was “protects against infection with three species of Proteus, two of Salmonella, one strain of Escherichia coli, two of Klebsiella and also against Paracolobactrum arizonae, Aerobacter aerogenes, Pasteurella multocida and Diplococcus pneumoniae 2400; also recorded: effectiveness against the following gram-negative bacteria: Escherichia coli, Proteus vulgaris, Proteus mirabilis, Proteus morganii, Salmonella schottmuelleri, Klebsiella pneumoniae AD, Klebsiella pneumoniae B, and Paracolobactrum arizonae”. The apparent isoelectric point ([6]; amphoteric compound) was roughly 3.5 pH, the stability [6] was “stable” and the stability ([6]; listed as Antibiotic 842A) was “relatively stable”. For the same compound, the growth inhibition (gram-positive bacteria) was “inhibits the growth of the following gram-positive bacteria”, the “appearance in blood / excretion” value ([7]; mouse) was “rapidly excreted in the urine” and the “appearance in blood / excretion” value ([7]; mouse, listed as Antibiotic 842A) was “appears rapidly in the blood”. The dose excreted at 4 h ([7]; mouse, urine, sc, within four hours after administration, read-out: eliminated/recovered in the urine) was roughly 79%, the “eliminated/recovered in the urine” value ([7]; within four hours after administration, 240 min, listed as Antibiotic 842A, 240 min) was “approximately 80%” and the percent inactivation (Proteus morganii 251) was 80%. For the same compound, the percent inactivation (Proteus mirabilis 241) was 5%, the percent inactivation (Escherichia coli 236) was 38% and the percent inactivation (Proteus morganii 356) was 69%. The “resistance to enzymatic degradation / inactivation” value ([8]; listed as Antibiotic 842A) was “greater resistance to cephalosporinases; also recorded: more resistant to enzymatic degradation than cephalosporin C; also recorded: more stable than the latter against certain microorganisms; also recorded: more resistant than cephalosporin C to inactivation by A. faecalis, A. viscosus, Escherichia coli 236, Proteus morganii 251, Proteus morganii 236 and Proteus mirabilis 241”, the “Percent Inactivation After Incubation With Washed Bacterial Cells” value [9] was 0% and the “Percent Inactivation After Incubation With Washed Bacterial Cells” value [10] was 54.4%.

For `COC(=Cc1ccc(OS(=O)(=O)O)cc1)C(=O)OCC1=C(C(=O)O)N2C(=O)[C@](NC(=O)CCC[C@@H](N)C(=O)O)(OC)[C@H]2SC1` [Ic, 7β-(D-5-amino-5-carboxyvaleramido)-3-(α-methoxy-p-sulfooxycinnamoyloxymethyl)-7-methoxy-3-cephem-4-carboxylic acid], the bactericidal action (bacteria) was “bactericidal”, the “protection against infection, oral” value [5] was “protects against infections due to Proteus vulgaris” and the “in vivo activity / protection spectrum” value [5] was “when administered intraperitoneally it is effective against a variety of gram-negative and gram-positive infections”. For the same compound, the “resistance to enzymatic degradation / inactivation” value ([8]; listed as 7β-(D-5-amino-5-carboxyvaleramido)-3-(α-methyoxy-p-sulfooxycinnamoyloxymethyl)-7) was “greater resistance to cephalosporinases than cephalothin; also recorded: more resistant to enzymatic degradation than cephalosporin C” and the toxicity [11] was “low order of toxicity in mice”.

In the case of `CO[C@@]1(NC(=O)CCC[C@@H](N)C(=O)O)C(=O)N2C(C(=O)O)=C(COC(N)=O)CS[C@@H]21` [Sodium Salt], the zone of inhibition at 192 µg/mL [12] is reported as 30 mm, the zone of inhibition at 192 µg/mL (Vibrio percolans) is reported as 38 mm and the zone of inhibition at 192 µg/mL (Escherichia coli W-MB-60 [13]; 0.1 M phosphate buffer pH 5, 25 °C) is reported as 15 mm. The zone of inhibition at 192 µg/mL (Escherichia coli W-MB-60 [13]; 0.1 M phosphate buffer pH 7, 25 °C) was 25 mm, the zone of inhibition at 192 µg/mL (Sarcina lutea) was 9 mm and the zone of inhibition at 192 µg/mL (Serratia marcescens) was 7 mm. For the same compound, the zone of inhibition at 192 µg/mL [14] was 10 mm, the zone of inhibition at 192 µg/mL [15] was 23 mm and the zone of inhibition at 192 µg/mL [16] was 16 mm. For the same compound, the zone of inhibition at 192 µg/mL (Pseudomonas aeruginosa) was 7 mm, the zone of inhibition at 192 µg/mL [17] was 7 mm and the zone of inhibition at 192 µg/mL [18] was 17 mm. For the same compound, the zone of inhibition at 192 µg/mL (Staphylococcus aureus) was 7 mm, the zone of inhibition at 192 µg/mL [19] was 17 mm and the zone of inhibition at 192 µg/mL (Alcaligenes faecalis) was 7 mm. The zone of inhibition at 192 µg/mL [20] was 16 mm, the zone of inhibition at 192 µg/mL (Streptococcus faecalis) was 7 mm and the zone of inhibition at 192 µg/mL (Brucella bronchiseptica) was 26 mm. The zone of inhibition at 192 µg/mL [21] was 16 mm.
